Reference: patent publication US20260130395A1, “Water Dispersible Botanical Compositions” (Aquila Black Limited, priority 2021, published 2026)

Experiment: Stability of cannabinoid compounds and Vitamin E components in Beverage 1 (AB White) by LCMSMS
Format: physicochemical
Conditions: for Stability of Plant-Derived Cannabinoid Compounds in AB White, 8° C.: AB White stored at 8° C.; for Stability of Plant-Derived Cannabinoid Compounds in AB White, 21-25° C.: AB White stored at 21-25° C.

Compound: CCCCCc1cc(O)c2c(c1)OC(C)(CCC=C(C)C)C=C2 (stereo not drawn) [CBC, cannabichromene]
- Stability of Plant-Derived Cannabinoid Compounds in AB White, 8° C. (29 days): 0.321 µg/mL
- Stability of Plant-Derived Cannabinoid Compounds in AB White, 8° C. (30 days): 0.31 µg/mL
- Stability of Plant-Derived Cannabinoid Compounds in AB White, 8° C. (60 days): 0.316 µg/mL
- Stability of Plant-Derived Cannabinoid Compounds in AB White, 8° C. (90 days): 0.318 µg/mL
- Stability of Plant-Derived Cannabinoid Compounds in AB White, 8° C. (120 days): 0.311 µg/mL
- Stability of Plant-Derived Cannabinoid Compounds in AB White, 8° C. (150 days): 0.314 µg/mL
- Stability of Plant-Derived Cannabinoid Compounds in AB White, 8° C. (180 days): 0.319 µg/mL
- Stability of Plant-Derived Cannabinoid Compounds in AB White, 8° C. (210 days): 0.309 µg/mL
- Stability of Plant-Derived Cannabinoid Compounds in AB White, 8° C. (240 days): 0.316 µg/mL
- Stability of Plant-Derived Cannabinoid Compounds in AB White, 8° C. (270 days): 0.316 µg/mL
- Stability of Plant-Derived Cannabinoid Compounds in AB White, 8° C. (300 days): 0.313 µg/mL
- Stability of Plant-Derived Cannabinoid Compounds in AB White, 8° C. (330 days): 0.316 µg/mL
- Stability of Plant-Derived Cannabinoid Compounds in AB White, 8° C. (360 days): 0.306 µg/mL
- Stability of Plant-Derived Cannabinoid Compounds in AB White, 8° C. (390 days): 0.310 µg/mL
- Stability of Plant-Derived Cannabinoid Compounds in AB White, 8° C. (420 days): 0.307 µg/mL
- Stability of Plant-Derived Cannabinoid Compounds in AB White, 8° C. (450 days): 0.312 µg/mL
- Stability of Plant-Derived Cannabinoid Compounds in AB White, 8° C. (480 days): 0.305 µg/mL
- Stability of Plant-Derived Cannabinoid Compounds in AB White, 8° C. (510 days): 0.295 µg/mL
- Stability of Plant-Derived Cannabinoid Compounds in AB White, 8° C. (540 days): 0.299 µg/mL
- Stability of Plant-Derived Cannabinoid Compounds in AB White, 8° C. (570 days): 0.293 µg/mL
- Stability of Plant-Derived Cannabinoid Compounds in AB White, 21-25° C. (0 days): 0.320 µg/mL
- Stability of Plant-Derived Cannabinoid Compounds in AB White, 21-25° C. (1 days): 0.313 µg/mL
- Stability of Plant-Derived Cannabinoid Compounds in AB White, 21-25° C. (2 days): 0.318 µg/mL
- Stability of Plant-Derived Cannabinoid Compounds in AB White, 21-25° C. (3 days): 0.311 µg/mL
- Stability of Plant-Derived Cannabinoid Compounds in AB White, 21-25° C. (5 days): 0.323 µg/mL
- Stability of Plant-Derived Cannabinoid Compounds in AB White, 21-25° C. (8 days): 0.319 µg/mL
- Stability of Plant-Derived Cannabinoid Compounds in AB White, 21-25° C. (9 days): 0.307 µg/mL
- Stability of Plant-Derived Cannabinoid Compounds in AB White, 21-25° C. (10 days): 0.312 µg/mL
- Stability of Plant-Derived Cannabinoid Compounds in AB White, 21-25° C. (11 days): 0.311 µg/mL
- Stability of Plant-Derived Cannabinoid Compounds in AB White, 21-25° C. (12 days): 0.316 µg/mL
- Stability of Plant-Derived Cannabinoid Compounds in AB White, 21-25° C. (15 days): 0.311 µg/mL
- Stability of Plant-Derived Cannabinoid Compounds in AB White, 21-25° C. (16 days): 0.321 µg/mL
- Stability of Plant-Derived Cannabinoid Compounds in AB White, 21-25° C. (17 days): 0.323 µg/mL
- Stability of Plant-Derived Cannabinoid Compounds in AB White, 21-25° C. (18 days): 0.313 µg/mL
- Stability of Plant-Derived Cannabinoid Compounds in AB White, 21-25° C. (19 days): 0.316 µg/mL
- Stability of Plant-Derived Cannabinoid Compounds in AB White, 21-25° C. (22 days): 0.322 µg/mL
- Stability of Plant-Derived Cannabinoid Compounds in AB White, 21-25° C. (23 days): 0.316 µg/mL
- Stability of Plant-Derived Cannabinoid Compounds in AB White, 21-25° C. (24 days): 0.308 µg/mL
- Stability of Plant-Derived Cannabinoid Compounds in AB White, 21-25° C. (25 days): 0.310 µg/mL
- Stability of Plant-Derived Cannabinoid Compounds in AB White, 21-25° C. (26 days): 0.308 µg/mL
- Stability of Plant-Derived Cannabinoid Compounds in AB White, 21-25° C. (29 days): 0.317 µg/mL
- Stability of Plant-Derived Cannabinoid Compounds in AB White, 21-25° C. (30 days): 0.317 µg/mL
- Stability of Plant-Derived Cannabinoid Compounds in AB White, 21-25° C. (60 days): 0.306 µg/mL
- Stability of Plant-Derived Cannabinoid Compounds in AB White, 21-25° C. (90 days): 0.305 µg/mL
- Stability of Plant-Derived Cannabinoid Compounds in AB White, 21-25° C. (120 days): 0.318 µg/mL
- Stability of Plant-Derived Cannabinoid Compounds in AB White, 21-25° C. (150 days): 0.312 µg/mL
- Stability of Plant-Derived Cannabinoid Compounds in AB White, 21-25° C. (180 days): 0.315 µg/mL
- Stability of Plant-Derived Cannabinoid Compounds in AB White, 21-25° C. (210 days): 0.307 µg/mL
- Stability of Plant-Derived Cannabinoid Compounds in AB White, 21-25° C. (240 days): 0.304 µg/mL
- Stability of Plant-Derived Cannabinoid Compounds in AB White, 21-25° C. (270 days): 0.316 µg/mL
- Stability of Plant-Derived Cannabinoid Compounds in AB White, 21-25° C. (300 days): 0.312 µg/mL
- Stability of Plant-Derived Cannabinoid Compounds in AB White, 21-25° C. (330 days): 0.312 µg/mL
- Stability of Plant-Derived Cannabinoid Compounds in AB White, 21-25° C. (360 days): 0.310 µg/mL
- Stability of Plant-Derived Cannabinoid Compounds in AB White, 21-25° C. (390 days): 0.303 µg/mL
- Stability of Plant-Derived Cannabinoid Compounds in AB White, 21-25° C. (420 days): 0.312 µg/mL
- Stability of Plant-Derived Cannabinoid Compounds in AB White, 21-25° C. (450 days): 0.310 µg/mL
- Stability of Plant-Derived Cannabinoid Compounds in AB White, 21-25° C. (480 days): 0.294 µg/mL
- Stability of Plant-Derived Cannabinoid Compounds in AB White, 21-25° C. (510 days): 0.293 µg/mL
- Stability of Plant-Derived Cannabinoid Compounds in AB White, 21-25° C. (540 days): 0.294 µg/mL
- Stability of Plant-Derived Cannabinoid Compounds in AB White, 21-25° C. (570 days): 0.295 µg/mL
